Measured values as given in patent US10329289B2, “6,7-dihydro-5H-pyrrolo[3,4-B]pyridin-5-one allosteric modulators of the M4 muscarinic acetylcholine receptor” (Merck Sharp & Dohme Corp., priority 2015, dated 2019).

What follows are compounds tested against T1, human M4 muscarinic acetylcholine receptor (Homo sapiens, UniProt P08173) (assay: human FLIPR-based M4 PAM assay (Ca2+ mobilization, CHO-K1 cells with human M4 receptor and Gαqi5)). Details: acetylcholine at 20% of maximum response, read-out: M4 PAM IP.
T1 construct: expressed in transfected cells; host or cells: CHO-K1
T1 sequence (P08173 1-479): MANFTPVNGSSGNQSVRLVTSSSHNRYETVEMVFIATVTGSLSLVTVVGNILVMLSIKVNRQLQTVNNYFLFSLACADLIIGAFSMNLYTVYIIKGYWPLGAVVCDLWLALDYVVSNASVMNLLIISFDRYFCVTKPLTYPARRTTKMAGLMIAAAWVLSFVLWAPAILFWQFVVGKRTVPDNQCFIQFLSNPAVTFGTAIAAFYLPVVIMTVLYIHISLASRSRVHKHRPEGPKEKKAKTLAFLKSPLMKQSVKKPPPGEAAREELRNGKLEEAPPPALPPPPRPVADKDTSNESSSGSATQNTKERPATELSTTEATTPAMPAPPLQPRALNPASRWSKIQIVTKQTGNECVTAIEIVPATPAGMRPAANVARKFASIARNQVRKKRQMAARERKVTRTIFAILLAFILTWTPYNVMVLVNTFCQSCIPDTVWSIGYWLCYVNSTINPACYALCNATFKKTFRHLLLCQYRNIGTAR
Type: cell-based
Summary of the method: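 Calcium-mobilization (FLIPR) readout in dye-loaded CHO-K1 cells co-expressing human M4 receptor and Gαqi5. Potentiation measured against acetylcholine at a concentration giving 20% of maximal response, with an optional 70% addition; the reported value is the curve inflection point from a 4-parameter logistic fit.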

Compound	EC50 [µM]
Cc1cc2c(nc1N1CCC(Oc3ccc(C#N)cc3)CC1)CNC2=O [Example 84, 4-((1-(3-methyl-5-oxo-6,7-dihydro-5H-pyrrolo[3,4-b]pyridin-2-yl)piperidin-4-yl)oxy)benzonitrile]	0.229
Cc1cc2c(nc1N1CCC(Oc3ccc(C#N)nc3)CC1)CNC2=O [Example 85, 5-((1-(3-methyl-5-oxo-6,7-dihydro-5H-pyrrolo[3,4-b]pyridin-2-yl)piperidin-4-yl)oxy)picolinonitrile]	2.62
Cc1cc2c(nc1N1CCC(Oc3ccon3)CC1)CNC2=O [Example 86, 2-(4-(isoxazol-3-yloxy)piperidin-1-yl)-3-methyl-6,7-dihydro-5H-pyrrolo[3,4-b]pyridin-5-one]	5.69
COC(=O)c1ccc(OC2CCN(c3nc4c(cc3C)C(=O)NC4)CC2)cn1 [Example 87, methyl 5-((1-(3-methyl-5-oxo-6,7-dihydro-5H-pyrrolo[3,4-b]pyridin-2-yl)piperidin-4-yl)oxy)picolinate]	1
Cc1cc2c(nc1N1CCC(Oc3ccc(C(F)(F)F)nc3)CC1)CNC2=O [Example 88, 3-methyl-2-(4-((6-(trifluoromethyl)pyridin-3-yl)oxy)piperidin-1-yl)-6,7-dihydro-5H-pyrrolo[3,4-b]pyridin-5-one]	0.381
Cc1cc2c(nc1N1CCC(Oc3ccc4cccnc4c3)CC1)CNC2=O [Example 92, 3-methyl-2-(4-(quinolin-7-yloxy)piperidin-1-yl)-6,7-dihydro-5H-pyrrolo[3,4-b]pyridin-5-one]	0.461
Cc1cc2c(nc1N1CCC(Oc3ccnc(C#N)c3)CC1)CNC2=O [Example 93, 4-((1-(3-methyl-5-oxo-6,7-dihydro-5H-pyrrolo[3,4-b]pyridin-2-yl)piperidin-4-yl)oxy)picolinonitrile]	0.944
CCc1cc2c(nc1N1CCC(Oc3cccc(C#N)c3)CC1)CNC2=O [Example 93A, 3-((1-(3-ethyl-5-oxo-6,7-dihydro-5H-pyrrolo[3,4-b]pyridin-2-yl)piperidin-4-yl)oxy)benzonitrile]	0.148
COc1ncc(OC2CCN(c3nc4c(cc3C)C(=O)NC4)CC2)cn1 [Example 94, 2-(4-((2-methoxypyrimidin-5-yl)oxy)piperidin-1-yl)-3-methyl-6,7-dihydro-5H-pyrrolo[3,4-b]pyridin-5-one]	1.73
Cc1c(N2CCC(Oc3cccc(C#N)c3)CC2)nc2c(c1C)C(=O)NC2 [Example 94A, 3-((1-(3,4-dimethyl-5-oxo-6,7-dihydro-5H-pyrrolo[3,4-b]pyridin-2-yl)piperidin-4-yl)oxy)benzonitrile]	0.193
Cc1cc2c(nc1N1[C@@H]3CC[C@H]1C[C@@H](Oc1cccc(C#N)c1)C3)CNC2=O [Example 95, 3-((endo-8-(3-methyl-5-oxo-6,7-dihydro-5H-pyrrolo[3,4-b]pyridin-2-yl)-8-azabicyclo[3.2.1]octan-3-yl)oxy)benzonitrile]	0.616
Cc1cc2c(nc1N1[C@@H]3CC[C@H]1C[C@H](Oc1cccc(C#N)c1)C3)CNC2=O [Example 96, 3-((exo-8-(3-methyl-5-oxo-6,7-dihydro-5H-pyrrolo[3,4-b]pyridin-2-yl)-8-azabicyclo[3.2.1]octan-3-yl)oxy)benzonitrile]	1.43
COc1ccc(O[C@H]2C[C@H]3CC[C@@H](C2)N3c2nc3c(cc2C)C(=O)NC3)cn1 [Example 97, 2-(endo-3-((6-methoxypyridin-3-yl)oxy)-8-azabicyclo[3.2.1]octan-8-yl)-3-methyl-6,7-dihydro-5H-pyrrolo[3,4-b]pyridin-5-one]	0.8
Cc1cc2c(nc1N1[C@@H]3CC[C@H]1C[C@H](Oc1ccc4c(cnn4C)c1)C3)CNC2=O [Example 98, 3-methyl-2-(exo-3-((1-methyl-1H-indazol-5-yl)oxy)-8-azabicyclo[3.2.1]octan-8-yl)-6,7-dihydro-5H-pyrrolo[3,4-b]pyridin-5-one]	0.522
COc1ccc(O[C@@H]2C[C@H]3CC[C@@H](C2)N3c2nc3c(cc2C)C(=O)NC3)cn1 [Example 99, 2-(exo-3-((6-methoxypyridin-3-yl)oxy)-8-azabicyclo[3.2.1]octan-8-yl)-3-methyl-6,7-dihydro-5H-pyrrolo[3,4-b]pyridin-5-one]	0.735
Cc1cc2c(nc1N1[C@@H]3CC[C@H]1C[C@@H](Oc1ccc4c(cnn4C)c1)C3)CNC2=O [Example 100, 3-methyl-2-(endo-3-((1-methyl-1H-indazol-5-yl)oxy)-8-azabicyclo[3.2.1]octan-8-yl)-6,7-dihydro-5H-pyrrolo[3,4-b]pyridin-5-one]	1.03
COc1cncc(OC2CCN(c3nc4c(cc3C)C(=O)NC4)CC2)c1 [Example 101, 2-(4-((5-methoxypyridin-3-yl)oxy)piperidin-1-yl)-3-methyl-6,7-dihydro-5H-pyrrolo[3,4-b]pyridin-5-one]	0.869
Cc1cc2c(nc1N1CCC(Oc3ccnc(OC(F)(F)F)c3)CC1)CNC2=O [Example 102, 3-methyl-2-(4-((2-(trifluoromethoxy)pyri-din-4-yl)oxy)piperidin-1-yl)-6,7-dihydro-5H-pyrrolo[3,4-b]pyridin-5-one]	0.69
Cc1cc2c(nc1N1CCC(Oc3cncc(F)c3)CC1)CNC2=O [Example 103, 2-(4-((5-fluoropyridin-3-yl)oxy)piperidin-1-yl)-3-methyl-6,7-dihydro-5H-pyrrolo[3,4-b]pyridin-5-one]	0.138
Cc1cc2c(nc1N1CCC(Oc3ccc(N4CCC4)nc3)CC1)CNC2=O [Example 105, 2-(4-((6-(azetidin-1-yl)pyridin-3-yl)oxy)piperidin-1-yl)-3-methyl-6,7-dihydro-5H-pyrrolo[3,4-b]pyridin-5-one]	0.104
Cc1cc2c(nc1N1CCC(Oc3ccc(N(C)C)nc3)CC1)CNC2=O [Example 106, 2-(4-((6-(dimethylamino)pyridin-3-yl)oxy)piperidin-1-yl)-3-methyl-6,7-dihydro-5H-pyrrolo[3,4-b]pyridin-5-one]	0.298
COC(=O)c1cncc(OC2CCN(c3nc4c(cc3C)C(=O)NC4)CC2)c1 [Example 111, methyl 5-((1-(3-methyl-5-oxo-6,7-dihydro-5H-pyrrolo[3,4-b]pyridin-2-yl)piperidin-4-yl)oxy)nicotinate]	4.36

Now those with a lower EC50, led by results:

EC50 [µM]	Compound
0.048	Cc1ccc(OC2CCN(c3nc4c(cc3C)C(=O)NC4)CC2)cc1 [Example 83, 3-methyl-2-(4-(p-tolyloxy)piperidin-1-yl)-6,7-dihydro-5H-pyrrolo[3,4-b]pyridin-5-one]
0.083	Cc1cc2c(nc1N1CCC(Oc3ccc4ncoc4c3)CC1)CNC2=O [Example 89, 2-(4-(benzo[d]oxazol-6-yloxy)piperidin-1-yl)-3-methyl-6,7-dihydro-5H-pyrrolo[3,4-b]pyridin-5-one]
0.094	COc1cc(OC2CCN(c3nc4c(cc3C)C(=O)NC4)CC2)ccn1 [Example 90, 2-(4-((2-methoxypyridin-4-yl)oxy)piperidin-1-yl)-3-methyl-6,7-dihydro-5H-pyrrolo[3,4-b]pyridin-5-one]
0.06	Cc1cc2c(nc1N1CCC(Oc3ccc(F)nc3)CC1)CNC2=O [Example 91, 2-(4-((6-fluoropyridin-3-yl)oxy)piperidin-1-yl)-3-methyl-6,7-dihydro-5H-pyrrolo[3,4-b]pyridin-5-one]
0.06	Cc1cc2c(nc1N1CCC(Oc3ccc(N)nc3)CC1)CNC2=O [Example 104, 2-(4-((6-aminopyridin-3-yl)oxy)piperidin-1-yl)-3-methyl-6,7-dihydro-5H-pyrrolo[3,4-b]pyridin-5-one]
0.087	Cc1cc2c(nc1N1CCC(Oc3ccc4c(c3)NCCO4)CC1)CNC2=O [Example 107, 2-(4-((3,4-dihydro-2H-benzo[b][1,4]oxazin-6-yl)oxy)piperidin-1-yl)-3-methyl-6,7-dihydro-5H-pyrrolo[3,4-b]pyridin-5-one]
0.059	Cc1cc(OC2CCN(c3nc4c(cc3C)C(=O)NC4)CC2)ccc1F [Example 108, 2-(4-(4-fluoro-3-methylphenoxy)piperidin-1-yl)-3-methyl-6,7-dihydro-5H-pyrrolo[3,4-b]pyridin-5-one]
0.02	Cc1cc2c(nc1N1CCC(Oc3ccc4c(c3)CCO4)CC1)CNC2=O [Example 109, 2-(4-((2,3-dihydrobenzofuran-5-yl)oxy)piperidin-1-yl)-3-methyl-6,7-dihydro-5H-pyrrolo[3,4-b]pyridin-5-one]
0.039	Cc1cc2c(nc1N1CCC(Oc3ccc4c(c3)C(=O)OC4)CC1)CNC2=O [Example 110, 3-methyl-2-(4-((3-oxo-1,3-dihydro-2-benzofuran-5-yl)oxy)piperidin-1-yl)-6,7-dihydro-5H-pyrrolo[3,4-b]pyridin-5-one]
0.02	Cc1cc2c(nc1N1CCC(Oc3ccc4c(c3)COCC4)CC1)CNC2=O [Example 112, 2-(4-(isochroman-7-yloxy)piperidin-1-yl)-3-methyl-6,7-dihydro-5H-pyrrolo[3,4-b]pyridin-5-one]
0.05	Cc1cc2c(nc1N1CCC(Oc3ccc4c(c3)OCCC4)CC1)CNC2=O [Example 113, 2-(4-(chroman-7-yloxy)piperidin-1-yl)-3-methyl-6,7-dihydro-5H-pyrrolo[3,4-b]pyridin-5-one]
0.088	Cc1cc(OC2CCN(c3nc4c(cc3C)C(=O)NC4)CC2)cnc1C [Example 114, 2-(4-((5,6-dimethylpyridin-3-yl)oxy)piperidin-1-yl)-3-methyl-6,7-dihydro-5H-pyrrolo[3,4-b]pyridin-5-one]
